The subject of this experiment is IL2 release from Jurkat cells. As to the kind of experiment: Effect of compounds on IL-2 secretion in T lymphocytes (Jurkat 6.1, anti-CD3/anti-CD28 stimulated, ELISA). Type of experiment: cell-based. Conditions: for IL-2 production, absolute values: 30 min pre-treatment, DMSO control 320.67 (plate 2), 338.25 (plate 3); for IL-2 production, absolute values / activity at 1 µM / activity at 10 µM: 24 h; for activity at 1 µM / activity at 10 µM: Homo sapiens, Jurkat, read-out: IL2 release as percentage of anti-CD3/CD28 stimulated release in presence of DMSO, Mean; for effect on IL2 release, in words: 1 and 10 μM. The protocol:
The T cell line Jurkat 6.1 (ATCC) was used. Cells were pre-treated for 30 min with 1 μM or 10 μM of the respective compound and then stimulated with plate-bound anti-CD3 (BD Pharmingen) and anti-CD28 (AnCell). DMSO was used as vehicle control. […] After 24 hs the supernatant was collected and IL-2 secretion was measured by ELISA.
Compounds were prepared by dissolution in DMSO to yield final concentrations of 1 and 10 μg/ml

`NC(=O)c1ccc(C[C@]2(C3=Cc4ccccc4C3)Cc3ccccc3[C@@H]2O)cc1` [Compound 13, 4-{[(1′R,2′R)-1′-hydroxy-1′,3′-dihydro-1H,2′H-2,2′-biinden-2′-yl]methyl}benzamide]: the “IL-2 production, absolute values” is 276.78 pg/mL (compound 1 uM) and 151.78 pg/mL (compound 10 uM).

Take `CCOC(=O)c1ccc(C[C@@]2(C3=Cc4ccccc4C3)Cc3ccccc3[C@H]2O)cc1` [Compound 18, ethyl 4-(((1S,2S)-1-hydroxy-2,3-dihydro-1H,1′H-[2,2′-biinden]-2-yl)methyl)benzoate]: the “IL-2 production, absolute values” reads like this: (compound 1 uM) 190.78 pg/mL; (compound 10 uM) 79.56 pg/mL.

With `CCCOC(=O)c1ccc(C[C@]2(C3=Cc4ccccc4C3)Cc3ccccc3[C@@H]2OC(=O)[C@@H](N)CC(C)C)cc1` [Compound 34, propyl 4-(((1R,2R)-1-(((S)-2-amino-4-methylpentanoyl)oxy)-2,3-dihydro-1H,1′H-[2,2′-biinden]-2-yl)methyl)benzoate], the activity at 1 µM amounted to 95.8% and the activity at 10 µM was 51.5%. Besides, the “IL-2 production, absolute values” (compound 1 uM) stood at 173.25 pg/mL. Besides, for the setting “compound 10 uM”, the “IL-2 production, absolute values” amounted to 71.38 pg/mL.

With `CC(C)C[C@H](N)C(=O)O[C@H]1c2ccccc2C[C@]1(Cc1ccc(C(=O)O)cc1)C1=Cc2ccccc2C1` [Compound 24, 4-{[(1′R,2′R)-1′-(L-leucyloxy)-1′,3′-dihydro-1H,2′H-2,2′-biinden-2′-yl]methyl}benzoic acid], the “IL-2 production, absolute values” (compound 1 uM) turned out to be 202.13 pg/mL and the “IL-2 production, absolute values” (compound 10 uM) was 149.63 pg/mL.

As for `COC(=O)c1ccc(C[C@@]2(C3=Cc4ccccc4C3)Cc3ccccc3[C@H]2OC(=O)[C@@H](N)CC(C)C)cc1` [Compound 39, methyl 4-(((1S,2S)-1-(((S)-2-amino-4-methylpentanoyl)oxy)-2,3-dihydro-1H,1′H-[2,2′-biinden]-2-yl)methyl)benzoate], the activity at 1 µM was found to be 73.7% and the activity at 10 µM is 21.7%. Further, the “IL-2 production, absolute values” (compound 1 uM) was found to be 105.94 pg/mL. The “IL-2 production, absolute values” (compound 10 uM) is 40.69 pg/mL.

In the case of `CNC(=O)c1ccc(C[C@]2(C3=Cc4ccccc4C3)Cc3ccccc3[C@@H]2O)cc1` [Compound 15, 4-{[(1′R,2′R)-1′-hydroxy-1′,3′-dihydro-1H,2′H-2,2′-biinden-2′-yl]methyl}-N-methylbenzamide], the “IL-2 production, absolute values” is 207.78 pg/mL (compound 1 uM) and 113.67 pg/mL (compound 10 uM).

With `COC(=O)c1ccc(C[C@]2(C3=Cc4ccccc4C3)Cc3ccccc3[C@@H]2OC(=O)[C@@H](N)CC(C)C)cc1` [Compound 32, methyl 4-(((1R,2R)-1-(((S)-2-amino-4-methylpentanoyl)oxy)-2,3-dihydro-1H,1′H-[2,2′-biinden]-2-yl)methyl)benzoate], the activity at 1 µM was found to be 86.2% and the activity at 10 µM is 40.8%. The “IL-2 production, absolute values” (compound 1 uM) was 215.25 pg/mL. Moreover, where the note is “compound 10 uM”, the “IL-2 production, absolute values” turned out to be 74.88 pg/mL.

For the compound `CCOC(=O)c1ccc(C[C@]2(C3=Cc4ccccc4C3)Cc3ccccc3[C@@H]2O)cc1` [Compound 11, ethyl 4-(((1R,2R)-1-hydroxy-2,3-dihydro-1H,1′H-[2,2′-biinden]-2-yl)methyl)benzoate], the “IL-2 production, absolute values” runs as follows: (compound 1 uM) 272.22 pg/mL; (compound 10 uM) 105.11 pg/mL.

As for `COC(=O)c1ccc(C[C@]2(C3=Cc4ccccc4C3)Cc3ccccc3[C@@H]2O)cc1` [Compound 10, methyl 4-(((1R,2R)-1-hydroxy-2,3-dihydro-1H,1′H-[2,2′-biinden]-2-yl)methyl)benzoate], the “IL-2 production, absolute values” (compound 1 uM) came to 185.56 pg/mL.

As for `O=C(NCCO)c1ccc(C[C@]2(C3=Cc4ccccc4C3)Cc3ccccc3[C@@H]2O)cc1` [Compound 14, 4-{[(1′R,2′R)-1′-hydroxy-1′,3′-dihydro-1H,2′H-2,2′-biinden-2′-yl]methyl}-N-(2-hydroxyethyl)benzamide], the “IL-2 production, absolute values” was 214.44 pg/mL (compound 1 uM) and 146.44 pg/mL (compound 10 uM).

For `CC(C)C[C@H](N)C(=O)O[C@@H]1c2ccccc2C[C@@]1(Cc1ccc(C(=O)NCCO)cc1)C1=Cc2ccccc2C1` [Compound 43, (1S,2S)-2-{4-[(2-Hydroxyethyl)carbamoyl]benzyl}-2,3-dihydro-1H,1′H-2,2′-biinden-1-yl leucinate], the “effect on IL2 release, in words” value was “greatest inhibition of IL2 release”; the activity at 1 µM was 72.4%; the activity at 10 µM stood at 8.4%. Further, the “IL-2 production, absolute values” (compound 1 uM) turned out to be 97.57 pg/mL. Also, where the note is “compound 10 uM”, the “IL-2 production, absolute values” is 12.79 pg/mL.

Consider `CC(C)[C@H](N)C(=O)O[C@@H]1c2ccccc2C[C@@]1(Cc1ccc(C(=O)O)cc1)C1=Cc2ccccc2C1` [Compound 29, 4-{[(1′S,2′S)-1′-(L-valyloxy)-1′,3′-dihydro-1H,2′H-2,2′-biinden-2′-yl]methyl}benzoic acid], for which the “IL-2 production, absolute values” was determined as 220.50 pg/mL (compound 1 uM) and 177.88 pg/mL (compound 10 uM).

In the case of `CCOC(=O)c1ccc(C[C@]2(C3=Cc4ccccc4C3)Cc3ccccc3[C@@H]2OC(=O)[C@@H](N)CC(C)C)cc1` [Compound 33, ethyl 4-(((1R,2R)-1-(((S)-2-amino-4-methylpentanoyl)oxy)-2,3-dihydro-1H,1′H-[2,2′-biinden]-2-yl)methyl)benzoate], the activity at 1 µM stood at 89.4% and the activity at 10 µM came to 43.6%. Moreover, the “IL-2 production, absolute values” (compound 1 uM) stood at 186.25 pg/mL. Moreover, the “IL-2 production, absolute values” (compound 10 uM) amounted to 74.38 pg/mL.

For the compound `NC(=O)c1ccc(C[C@@]2(C3=Cc4ccccc4C3)Cc3ccccc3[C@H]2O)cc1` [Compound 20, 4-{[(1′S,2′S)-1′-hydroxy-1′,3′-dihydro-1H,2′H-2,2′-biinden-2′-yl]methyl}benzamide], the “IL-2 production, absolute values” by setting is: (compound 1 uM) 174.11 pg/mL; (compound 10 uM) 141.78 pg/mL.

On to `CNC(=O)c1ccc(C[C@]2(C3=Cc4ccccc4C3)Cc3ccccc3[C@@H]2OC(=O)[C@@H](N)CC(C)C)cc1` [Compound 37, (1R,2R)-2-[4-(methylcarbamoyl)benzyl]-2,3-dihydro-1H,1′H-2,2′-biinden-1-yl L-leucinate], for which the activity at 1 µM stood at 99.2% and the activity at 10 µM came to 50.2%. The “IL-2 production, absolute values” (compound 1 uM) came out at 275.50 pg/mL. For the same compound, the “IL-2 production, absolute values” (compound 10 uM) turned out to be 79.00 pg/mL.

Turning to `CC(C)C[C@H](N)C(=O)O[C@H]1c2ccccc2C[C@]1(Cc1ccc(C(=O)N(C)C)cc1)C1=Cc2ccccc2C1` [Compound 38, (1R,2R)-2-[4-(dimethylcarbamoyl)benzyl]-2,3-dihydro-1H,1′H-2,2′-biinden-1-yl L-leucinate], the “effect on IL2 release, in words” value is “inactive”; the activity at 1 µM turned out to be 107%; the activity at 10 µM amounted to 62.7%. Besides, the “IL-2 production, absolute values” (compound 1 uM) was determined as 226.75 pg/mL. Besides, the “IL-2 production, absolute values” (compound 10 uM) was 268.63 pg/mL.

Consider `CCCOC(=O)c1ccc(C[C@@]2(C3=Cc4ccccc4C3)Cc3ccccc3[C@H]2OC(=O)[C@@H](N)CC(C)C)cc1` [Compound 41, propyl 4-(((1S,2S)-1-(((S)-2-amino-4-methylpentanoyl)oxy)-2,3-dihydro-1H, 1′H-[2,2′-biinden]-2-yl)methyl)benzoate], for which the activity at 1 µM is 77% and the activity at 10 µM was determined as 42.1%. For the setting “compound 1 uM”, the “IL-2 production, absolute values” was 99.50 pg/mL. Besides, the “IL-2 production, absolute values” (compound 10 uM) came out at 62.50 pg/mL.

In the case of `CN(C)C(=O)c1ccc(C[C@]2(C3=Cc4ccccc4C3)Cc3ccccc3[C@@H]2O)cc1` [Compound 16, 4-{[(1′R,2′R)-1′-hydroxy-1′,3′-dihydro-1H,2′H-2,2′-biinden-2′-yl]methyl}-N,N-dimethylbenzamide], the “IL-2 production, absolute values” came out at 243.00 pg/mL (compound 1 uM) and 171.78 pg/mL (compound 10 uM).

On to `CCCOC(=O)c1ccc(C[C@]2(C3=Cc4ccccc4C3)Cc3ccccc3[C@@H]2O)cc1` [Compound 12, propyl 4-(((1R,2R)-1-hydroxy-2,3-dihydro-1H,1′H-[2,2′-biinden]-2-yl)methyl)benzoate], for which the “IL-2 production, absolute values” reads like this: (compound 1 uM) 240.22 pg/mL; (compound 10 uM) 132.44 pg/mL.

As to `CC(C)C[C@H](N)C(=O)O[C@H]1c2ccccc2C[C@]1(Cc1ccc(C(N)=O)cc1)C1=Cc2ccccc2C1` [Compound 35, (1R,2R)-2-(4-carbamoylbenzyl)-2,3-dihydro-1H,1′H-2,2′-biinden-1-yl L-leucinate], the “effect on IL2 release, in words” value is “inactive”; the activity at 1 µM stood at 149%; the activity at 10 µM worked out at 95.5%. Further, where the note is “compound 1 uM”, the “IL-2 production, absolute values” came out at 238.88 pg/mL. For the setting “compound 10 uM”, the “IL-2 production, absolute values” came to 189.38 pg/mL.

On to `O=C(NCCO)c1ccc(C[C@@]2(C3=Cc4ccccc4C3)Cc3ccccc3[C@H]2O)cc1` [Compound 21, 4-{[(1′S,2′S)-1′-hydroxy-1′,3′-dihydro-1H,2′H-2,2′-biinden-2′-yl]methyl}-N-(2-hydroxyethyl)benzamide], for which the “IL-2 production, absolute values” runs as follows: (compound 1 uM) 210.89 pg/mL; (compound 10 uM) 137.78 pg/mL.

With `COC(=O)c1ccc(C[C@@]2(C3=Cc4ccccc4C3)Cc3ccccc3[C@H]2O)cc1` [Compound 17, methyl 4-(((1S,2S)-1-hydroxy-2,3-dihydro-1H,1′H-[2,2′-biinden]-2-yl)methyl)benzoate], where the note is “compound 1 uM”, the “IL-2 production, absolute values” was 168.44 pg/mL.

(Values after patent US20150141506A1, “INDANE DIMERS FOR USE IN THE TREATMENT OF AUTOIMMUNE INFLAMMATORY DISEASE” (Venantius Limited, priority 2012, published 2015).)
